Source: patent US9296741B2, “Bromodomain inhibitors” (priority 2012, dated 2016)

How the values were obtained:
[1] = molecular target: human BRD4 first bromodomain (BDI_K57-E168) (Homo sapiens (Human), UniProt O60885); test: TR-FRET bromodomain binding assay, BRD4 first bromodomain
[2] = molecular target: human BRD4 second bromodomain (BDII_E352-M457) (Homo sapiens (Human), UniProt O60885); test: TR-FRET bromodomain binding assay, BRD4 second bromodomain
[3] = test system: breast cancer cell line MX-1; test: MX-1 cell line proliferation assay; assay type: cell-based, human; conditions: Homo sapiens, MX1, 72 h; MX-1 cells, 3-day proliferation, Cell Titer Glo; read-out: Cellular proliferation: EC50
[4] = Human liver microsome stability assay; assay type: in vitro ADME; conditions: both sexes, human, microsomes, pH 7.4
[5] = Rat liver microsome stability assay; assay type: in vitro ADME; conditions: rat liver microsomes (male Sprague-Dawley), 0.5 μM test compound, 0.25 mg/mL microsomal protein, pH 7.4, 37° C.; read-out: Stability in rat liver microsomes (t1/2 in minutes)
[6] = Mouse liver microsome stability assay; assay type: in vitro ADME; conditions: male, CD1, mouse, microsomes, pH 7.4
[7] = test system: LPS induced IL-6 production; test: LPS (lipopolysaccharide) induced IL-6 production mouse assay; assay type: in vivo; conditions: 1 h before LPS, serum IL-6 2 h after LPS; for inhibition in vivo at 3 mg/kg: Mus musculus, read-out: Inhibition of LPS induced IL-6 production in Mice, % inhibition at 3 mg/kg, 3 mg/kg oral

Row | Structure (SMILES) | Ki [1] [nM] | Ki [2] [nM] | EC50 [3] [nM] | half-life at 0.5 μM [4] [min] | half-life at 0.5 μM [5] [min] | half-life at 0.5 μM [6] [min] | Inhibition of LPS induced IL-6 production in Mice, % inhibition at 50 mg/kg ([7]; 50 mg/kg oral) [% at 50 mg/kg] | inhibition in vivo at 3 mg/kg [7] [%] | Inhibition of LPS induced IL-6 production in Mice, % inhibition at 30 mg/kg ([7]; 30 mg/kg oral) [% at 30 mg/kg]
1 | Cn1cc(-c2cc(NS(=O)(=O)CC(F)(F)F)ccc2Oc2ccccc2)c2cc[nH]c2c1=O [Example 5, 2,2,2-trifluoro-N-[3-(6-methyl-7-oxo-6,7-dihydro-1H-pyrrolo[2,3-c]pyridin-4-yl)-4-phenoxyphenyl]ethanesulfonamide] | 15 | 6.4 | 31 | 100 | 6 | 24 | 74 | – | –
2 | Cn1cc(-c2cc(NS(C)(=O)=O)ccc2Oc2cccnc2)c2cc[nH]c2c1=O [Example 11, N-[3-(6-methyl-7-oxo-6,7-dihydro-1H-pyrrolo[2,3-c]pyridin-4-yl)-4-(pyridin-3-yloxy)phenyl]methanesulfonamide] | 1.8 | 2.4 | 34.2 | 48 | 19 | 27 | – | 34 | –
3 | Cn1cc(-c2cc(NS(C)(=O)=O)ccc2Oc2ccccc2C(F)(F)F)c2cc[nH]c2c1=O [Example 32, N-{3-(6-methyl-7-oxo-6,7-dihydro-1H-pyrrolo[2,3-c]pyridin-4-yl)-4-[2-(trifluoromethyl)phenoxy]phenyl}methanesulfonamide] | 16 | 7.5 | 83.3 | 24 | 82 | 32 | – | 69 | –
4 | Cn1cc(-c2cc(NS(C)(=O)=O)ccc2Oc2ccc(F)cc2Cl)c2cc[nH]c2c1=O [Example 34, N-[4-(2-chloro-4-fluorophenoxy)-3-(6-methyl-7-oxo-6,7-dihydro-1H-pyrrolo[2,3-c]pyridin-4-yl)phenyl]methanesulfonamide] | 3.5 | 2.1 | 26.8 | 37 | 42 | 35 | – | 78 | –
5 | Cn1cc(-c2cc(NS(C)(=O)=O)ccc2Oc2ccc(F)c(F)c2)c2cc[nH]c2c1=O [Example 48, N-[4-(3,4-difluorophenoxy)-3-(6-methyl-7-oxo-6,7-dihydro-1H-pyrrolo[2,3-c]pyridin-4-yl)phenyl]methanesulfonamide] | 2.3 | 3.3 | 23.5 | 37 | 32 | 35 | – | 62 | –
6 | Cn1cc(-c2cc(NS(C)(=O)=O)ccc2Oc2c(F)cc(F)cc2F)c2cc[nH]c2c1=O [Example 49, N-[3-(6-methyl-7-oxo-6,7-dihydro-1H-pyrrolo[2,3-c]pyridin-4-yl)-4-(2,4,6-trifluorophenoxy)phenyl]methanesulfonamide] | 1.7 | 1.5 | 19.6 | 71 | 51 | 46 | – | 57 | –
7 | Cn1cc(-c2cc(C(=O)N3CCOCC3)ccc2Oc2ccc(F)cc2F)c2cc[nH]c2c1=O [Example 56, 4-[2-(2,4-difluorophenoxy)-5-(morpholin-4-ylcarbonyl)phenyl]-6-methyl-1,6-dihydro-7H-pyrrolo[2,3-c]pyridin-7-one] | 12.2 | 2.4 | 251 | 39 | 30 | 36 | – | 28 | –
8 | Cn1cc(-c2cc(NS(C)(=O)=O)ccc2OC2CCC(F)(F)CC2)c2cc[nH]c2c1=O [Example 59, N-{4-[(4,4-difluorocyclohexyl)oxy]-3-(6-methyl-7-oxo-6,7-dihydro-1H-pyrrolo[2,3-c]pyridin-4-yl)phenyl}methanesulfonamide] | 0.84 | 1.6 | 18.7 | > 120 | 40 | 23 | – | 54 | –
9 | CCS(=O)(=O)Nc1ccc(Oc2c(F)cc(F)cc2F)c(-c2cn(C)c(=O)c3[nH]ccc23)c1 [Example 62, N-[3-(6-methyl-7-oxo-6,7-dihydro-1H-pyrrolo[2,3-c]pyridin-4-yl)-4-(2,4,6-trifluorophenoxy)phenyl]ethanesulfonamide] | 3 | 1.9 | 7.9 | 64 | 45 | 25 | – | 67 | –
10 | CNS(=O)(=O)Nc1ccc(Oc2ccc(F)cc2F)c(-c2cn(C)c(=O)c3[nH]ccc23)c1 [Example 65, N-[4-(2,4-difluorophenoxy)-3-(6-methyl-7-oxo-6,7-dihydro-1H-pyrrolo[2,3-c]pyridin-4-yl)phenyl]-N′-methylsulfuric diamide] | 11.6 | 4.9 | 25.5 | 88 | > 120 | 11 | – | 63 | –
11 | Cn1nc(-c2cc(NS(C)(=O)=O)ccc2Oc2ccccc2)c2cc[nH]c2c1=O [Example 80, N-[3-(6-methyl-7-oxo-6,7-dihydro-1H-pyrrolo[2,3-d]pyridazin-4-yl)-4-phenoxyphenyl]methanesulfonamide] | 9.1 | 6.1 | 62 | 62 | 2 | 31 | – | – | 69
12 | CCS(=O)(=O)Nc1ccc(Oc2ccc(F)cc2F)c(-c2nn(C)c(=O)c3[nH]ccc23)c1 [Example 160, N-[4-(2,4-difluorophenoxy)-3-(6-methyl-7-oxo-6,7-dihydro-1H-pyrrolo[2,3-d]pyridazin-4-yl)phenyl]ethanesulfonamide] | – | – | 119 | 67 | 119 | 21 | – | 51 | –
13 | CCS(=O)(=O)c1ccc(OCC2CC2)c(-c2cn(C)c(=O)c3[nH]ccc23)c1 [Example 198, 4-[2-(cyclopropylmethoxy)-5-(ethylsulfonyl)phenyl]-6-methyl-1,6-dihydro-7H-pyrrolo[2,3-c]pyridin-7-one] | 1.3 | 1.6 | 9.3 | – | – | 55 | – | 66 | –
14 | CCS(=O)(=O)c1ccc(OCC2CC2)c(-c2nn(C)c(=O)c3[nH]ccc23)c1 [Example 204, 4-[2-(cyclopropylmethoxy)-5-(ethylsulfonyl)phenyl]-6-methyl-1,6-dihydro-7H-pyrrolo[2,3-d]pyridazin-7-one] | – | – | 82.9 | > 120 | 81 | 68 | – | 35 | –
15 | CNS(=O)(=O)c1cnc(NCC2CC2)c(-c2cn(C)c(=O)c3[nH]ccc23)c1 [Example 210, 6-[(cyclopropylmethyl)amino]-N-methyl-5-(6-methyl-7-oxo-6,7-dihydro-1H-pyrrolo[2,3-c]pyridin-4-yl)pyridine-3-sulfonamide] | – | – | 36.7 | 104 | > 120 | > 120 | – | 78 | –
16 | CNS(=O)(=O)c1cnc(Oc2ccc(F)cc2F)c(-c2cn(C)c(=O)c3[nH]ccc23)c1 [Example 246, 6-(2,4-difluorophenoxy)-N-methyl-5-(6-methyl-7-oxo-6,7-dihydro-1H-pyrrolo[2,3-c]pyridin-4-yl)pyridine-3-sulfonamide] | – | – | 97.5 | 52 | 53 | 56 | – | 71 | –
17 | Cn1cc(-c2cc(S(N)(=O)=O)ccc2OCC2CC2)c2cc[nH]c2c1=O [Example 249, 4-(cyclopropylmethoxy)-3-(6-methyl-7-oxo-6,7-dihydro-1H-pyrrolo[2,3-c]pyridin-4-yl)benzenesulfonamide] | – | – | 14.4 | > 120 | > 120 | > 120 | – | 59 | –
18 | Cn1cc(-c2cc(CS(C)(=O)=O)ccc2Oc2ccc(F)cc2F)c2cc[nH]c2c1=O [Example 287, 4-{2-(2,4-difluorophenoxy)-5-[(methylsulfonyl)methyl]phenyl}-6-methyl-1,6-dihydro-7H-pyrrolo[2,3-c]pyridin-7-one] | – | – | 19.5 | > 120 | 116 | 29 | – | 73 | –
19 | Cn1cc(-c2cc(CS(C)(=O)=O)ccc2NCC2CC2)c2cc[nH]c2c1=O [Example 328, 4-{2-[(cyclopropylmethyl)amino]-5-[(methylsulfonyl)methyl]phenyl}-6-methyl-1,6-dihydro-7H-pyrrolo[2,3-c]pyridin-7-one] | – | – | 42.6 | > 120 | 36 | > 120 | – | 40 | –
20 | Cn1cc(-c2cc(S(C)(=O)=O)ccc2NCC2CC2)c2cc[nH]c2c1=O [Example 329, 4-{2-[(cyclopropylmethyl)amino]-5-(methylsulfonyl)phenyl}-6-methyl-1,6-dihydro-7H-pyrrolo[2,3-c]pyridin-7-one] | – | – | 17.1 | > 120 | > 120 | > 120 | – | 63 | –
